Entries after “also recorded” stand apart in the source; their conditions may differ. Read-outs that look alike come from different tables or passages of the source.
Experiments:
[1] = In vitro cytotoxicity assay, CCK-8 method; assay type: cell-based; details: human, HepG2 cells
Procedure, shortened: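 HepG2 cells at 50,000/well, grown to 80–90% confluence, exposed to compound dilutions or DMSO vehicle for 48 h at 37 °C. Viability by CCK-8 (1.5 h, 37 °C), absorbance at 450 nm; CC50 calculated.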

[2] = In vitro metabolic stability, rat liver microsome; assay type: in vitro ADME; details: liver microsomes, 1 mg/mL liver microsome protein, 37° C., NA = essentially not metabolized, read-out: T1/2 in rat liver microsome
Procedure, shortened: (§1)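 Compounds incubated with rat or human liver microsomes. At each time point reactions stopped with cold acetonitrile containing internal standards and centrifuged. Supernatants analysed by LC-MS to derive in vitro metabolic half-life.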

Male SD rats = assay: Two-bottle dysgeusia test (quinine water vs normal water); assay type: in vivo, rat; details: for Quinine/tap water* 100%: rats, single intraperitoneal injection
Description: All drinking water bottles were removed out 20 h before the start of the formal experiment, and all the animals were deprived of water until the start of the experiment. In the experiment, all the animals were randomly grouped and then subjected to a single intraperitoneal injection of a test compound or a vehicle before water was resupplied. The administration time was determined according to the Tmax of the test compound. Then the animals were placed in separate cages, and two bottles of drinking water (one bottle of normal drinking water and one bottle of 0.3 mM quinine water) were provided.

[3] = molecular target: hP2X3 (human purinergic P2X receptor subtype 3) (Homo sapiens (Human), UniProt P56373); assay: FLIPR calcium assay, hP2X3 expressed in HEK293 cells; assay type: cell-based; details: read-out: P2X3 IC50
Sequence of hP2X3 (human purinergic P2X receptor subtype 3) (P56373 whole entry): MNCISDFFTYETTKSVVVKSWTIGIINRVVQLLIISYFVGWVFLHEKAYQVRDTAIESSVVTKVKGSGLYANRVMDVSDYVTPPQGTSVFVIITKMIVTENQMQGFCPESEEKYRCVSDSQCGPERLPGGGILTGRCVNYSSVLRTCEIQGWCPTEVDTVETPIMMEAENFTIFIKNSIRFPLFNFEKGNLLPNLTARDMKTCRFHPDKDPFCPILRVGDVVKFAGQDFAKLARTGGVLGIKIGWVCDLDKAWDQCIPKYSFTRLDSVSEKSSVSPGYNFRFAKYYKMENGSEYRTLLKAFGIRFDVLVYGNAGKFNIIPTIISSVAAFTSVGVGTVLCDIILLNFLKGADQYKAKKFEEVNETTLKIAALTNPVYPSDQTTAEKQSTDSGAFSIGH

[4] = In vitro metabolic stability, guinea pig liver microsome; assay type: in vitro ADME; details: liver microsomes, 1 mg/mL liver microsome protein, 37° C., NA = essentially not metabolized, read-out: T1/2 in guinea pig liver microsome
Procedure, shortened: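 Test compound incubated at 37° C. in microsomes (1 mg/mL protein) with NADPH-regenerating system (1 mM NADP, 6 mM glucose 6-phosphate, 25 U/mL G6PDH, 5 mM MgCl2). Timed aliquots quenched in cold acetonitrile with internal standards; supernatant analysed by LC-MS to derive in vitro half-life.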

[5] = test system: Male Dunkin Hartley guinea pigs; assay: Citric acid only cough model; assay type: in vivo, guinea pig; design: Mean cough latency: unit not given beside the values; details: for Number of coughs and cough latency (in words): compared with the blank vehicle or the condition before administration; for inhibition in vivo at 30 mg/kg: Cavia porcellus; for Mean number of coughs: 17.5% citric acid
Description: Male Dunkin Hartley guinea pigs (300-350 g) were placed in an animal atomization box, and then the door of the atomization box was closed while the ultrasonic atomizer (Guangdong Yuehua) was turned on. 17.5% citric acid gas was introduced into the atomization box at a maximum atomization rate (about 2 mL/min) for 20 s, and coughs of the animals within 10 min were continuously observed from the time of the start of atomization. During the 10-min observation, coughs of the animals were counted manually, and the number of coughs were judged according to cough postures of the guinea pigs, such as abdominal twitching, mouth opening, and head inclining downward abruptly. The number of coughs during the first 5 min and that during 10 min were recorded, and the cough latency of the guinea pigs, namely the time from the initiation of citric acid induction to the appearance of the first cough, was also recorded.

[6] = molecular target: hP2X2/3 (heterodimeric receptors formed by human purinergic P2X receptors subtype 2 and subtype 3) (Homo sapiens (Human), UniProt P56373+Q9UBL9); assay: FLIPR calcium assay, hP2X2/3 expressed in HEK293 cells (P2X2/3 receptor selectivity); assay type: cell-based; details: for IC50: HEK293 cells expressing hP2X2/3, agonist BZ-ATP 5 μM, unit inferred
Sequence of hP2X2/3 (heterodimeric receptors formed by human purinergic P2X receptors subtype 2 and subtype 3) (P56373 whole entry): as above
Sequence of hP2X2/3 (heterodimeric receptors formed by human purinergic P2X receptors subtype 2 and subtype 3) (Q9UBL9 whole entry): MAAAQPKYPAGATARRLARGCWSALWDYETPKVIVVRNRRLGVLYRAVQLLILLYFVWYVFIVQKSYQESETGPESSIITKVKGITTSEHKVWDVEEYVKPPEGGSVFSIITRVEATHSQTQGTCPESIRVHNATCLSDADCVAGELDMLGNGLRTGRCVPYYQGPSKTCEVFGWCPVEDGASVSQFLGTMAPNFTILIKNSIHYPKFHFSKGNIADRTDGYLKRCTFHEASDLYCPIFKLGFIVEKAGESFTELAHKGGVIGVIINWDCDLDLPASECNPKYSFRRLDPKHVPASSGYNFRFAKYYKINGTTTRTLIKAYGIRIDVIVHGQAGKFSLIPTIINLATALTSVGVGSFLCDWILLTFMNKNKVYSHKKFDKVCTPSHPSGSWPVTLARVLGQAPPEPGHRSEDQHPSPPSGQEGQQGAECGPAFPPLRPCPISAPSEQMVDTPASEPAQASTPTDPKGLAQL

[7] = In vitro metabolic stability, human liver microsome; assay type: in vitro ADME; details: liver microsomes, 1 mg/mL liver microsome protein, 37° C., NA = essentially not metabolized, read-out: T1/2 in human liver microsome
Procedure, shortened: as §1

[8] = test system: Male Dunkin Hartley guinea pigs; assay: ATP-citric acid cough model; assay type: in vivo, guinea pig; details: for Number of coughs / cough inhibition (in words): compared with the vehicle group
Description: Male Dunkin Hartley guinea pigs (300-400 g) were placed into a whole-body plethysmography box to adapt for 3-5 min, then ATP atomization is carried out for 2 min, and 3 min later, 5 min of citric acid atomization was followed, with all atomization rates being about 300 uL/min. The number of coughs and the cough latency of the animals within 10 min from the start of the citric acid atomization were recorded. During the 10-min observation, coughs of the animals were counted manually, and the coughs were judged according to cough postures of the guinea pigs, such as abdominal twitching, mouth opening, head inclining downward abruptly and the like. The number of coughs during 10 min were recorded, and the cough latency of the guinea pigs was also recorded.
The animals were divided into a vehicle group, a dextromethorphan (63 mg/kg) positive group, an AF-219 (30 mg/kg) positive group and Example 173 compound (3, 10, 30 mg/kg) administration groups, and all the compounds were orally administered. Except that dextromethorphan was administered 40 min before ATP-citric acid exposure, the remaining compounds were administered 2 h before ATP-citric acid exposure.

[9] = phase II clinical trial; cited from earlier work
[10] = 20 mg/kg, compared with the blank vehicle
[11] = Table 8, 20 mg/kg, water intake within 15 min, 0.3 mM quinine
[12] = 30 mg/kg, read-out: Cough inhibition rate Vs Baseline (%)
[13] = 30 mg/kg, read-out: Cough inhibition rate Vs Vehicle (%)
[14] = 30 mg/kg oral, 2 h before ATP-citric acid exposure
[15] = before administration (baseline of the group)
[16] = 63 mg/kg oral, 40 min before ATP-citric acid exposure

Compound: COC(=O)N1CCO[C@@H](Cc2c(-c3c(F)cc(NC(C)=O)cc3F)nc3cc(C)ccn23)C1 [Compound 2, methyl (S)-2-((2-(2,6-difluoro-4-acetamidophenyl)-7-methylimidazo[1,2-a]pyridin-3-yl)-methyl)morpholine-4-carboxylate]
- CC50 at 48 h [1]: 124 µM
- half-life [2]: 0.872 h
- Ratio of quinine/water intake (in words) (Male SD rats; [10]): almost unaffected
- Quinine/tap water* 100% (Male SD rats; [11]): 5.49%
- IC50 [3]: < 0.01 µM
- half-life [4]: 1.59 h
- Number of coughs and cough latency (in words) ([5]; 30 mg/kg): can effectively reduce the number of coughs and prolong the cough latency
- inhibition in vivo at 30 mg/kg [5, 12]: 38.7%
- inhibition in vivo at 30 mg/kg [5, 13]: 34.2%
- Folds of selectivity [6]: A (key: A: folds of selectivity >1000; B: 200< folds of selectivity ≤1000; C: folds of selectivity ≤200)
- IC50 [6]: > 60 µM
- half-life [7]: 14.9 h

Compound: COC(=O)N1CCO[C@@H](Cc2c(-c3c(F)cc(-c4ncc[nH]4)cc3F)nc3cc(C)ccn23)C1 [Compound 7, methyl (S)-2-((2-(2,6-difluoro-4-(1H-imidazol-2-yl)phenyl)-7-methylimidazo[1,2-a]pyridin-3-yl)methyl)morpholine-4-carboxylate]
- CC50 at 48 h [1]: 195 µM
- half-life [2]: 0.326 h
- Ratio of quinine/water intake (in words) (Male SD rats; [10]): almost unaffected
- Quinine/tap water* 100% (Male SD rats; [11]): 6.91%
- IC50 [3]: < 0.01 µM
- half-life [4]: 0.348 h
- Number of coughs and cough latency (in words) ([5]; 30 mg/kg): can effectively reduce the number of coughs and prolong the cough latency
- inhibition in vivo at 30 mg/kg [5, 12]: 42.6%
- inhibition in vivo at 30 mg/kg [5, 13]: 38.3%
- Folds of selectivity [6]: A (key: A: folds of selectivity >1000; B: 200< folds of selectivity ≤1000; C: folds of selectivity ≤200)
- IC50 [6]: > 60 µM
- half-life [7]: 2.13 h

Compound: CC(=O)N1CCO[C@@H](Cc2c(-c3c(F)cc(-n4ccnc4)cc3F)nc3cc(C)ccn23)C1 [Compound 162, (S)-1-(2-((2-(2,6-difluoro-4-(1H-imidazol-1-yl)phenyl)-7-methylimidazo[1,2-a]pyridin-3-yl)methyl)morpholino)ethan-1-one]
- CC50 at 48 h [1]: > 100 µM
- Ratio of quinine/water intake (in words) (Male SD rats; [10]): almost unaffected
- Quinine/tap water* 100% (Male SD rats; [11]): 6.34%
- IC50 [3]: < 0.01 µM
- Number of coughs and cough latency (in words) ([5]; 30 mg/kg): can effectively reduce the number of coughs and prolong the cough latency
- inhibition in vivo at 30 mg/kg [5, 12]: 46.1%
- inhibition in vivo at 30 mg/kg [5, 13]: 42.8%
- Folds of selectivity [6]: A (key: A: folds of selectivity >1000; B: 200< folds of selectivity ≤1000; C: folds of selectivity ≤200)
- IC50 [6]: > 60 µM

Compound: COc1cc(C(C)C)c(Oc2cnc(N)nc2N)cc1S(N)(=O)=O [Positive compound 2, reference compound]
- CC50 at 48 h [1]: > 200 µM
- half-life [2]: 18.2 h
- Quinine/tap water* 100% (Male SD rats; [11]): 59.41%
- Quinine/tap water* 100% (Male SD rats; Table 9, 10 mg/kg): 18.62%
- Quinine/tap water* 100% (Male SD rats; Table 9, 20 mg/kg): 34.99%
- half-life [4]: 14.9 h

Compound: COC(=O)N1CCO[C@@H](Cc2c(-c3c(F)cc(S(N)(=O)=O)cc3F)nc3cc(Cl)ccn23)C1 [Compound 172, methyl (S)-2-((7-chloro-2-(2,6-difluoro-4-sulfamoylphenyl)imidazo[1,2-a]pyridin-3-yl)methyl)morpholine-4-carboxylate]
- CC50 at 48 h [1]: 57.1 µM
- half-life [2]: 3.72 h
- Ratio of quinine/water intake of rats (in words) (Male SD rats; 5 mg/kg, 10 mg/kg and 20 mg/kg, compared with the blank vehicle): almost unaffected
- Quinine/tap water* 100% (Male SD rats; Table 9, 5 mg/kg): 7.05%
- Quinine/tap water* 100% (Male SD rats; Table 9, 10 mg/kg): 7.41%
- Quinine/tap water* 100% (Male SD rats; Table 9, 20 mg/kg): 8.66%
- Number of coughs during 10 min ([8]; 3 mg/kg oral, 2 h before ATP-citric acid exposure): 14.42
- Number of coughs during 10 min ([8]; 10 mg/kg oral, 2 h before ATP-citric acid exposure): 10.17
- Number of coughs during 10 min [8, 14]: 9.83
- Number of coughs / cough inhibition (in words) [8]: stronger cough inhibition effect than positive compound 2
- Number of coughs / cough inhibition (in words) ([8]; listed as compound 172): can significantly reduce the number of coughs; also recorded: inhibition in a dose-dependent manner
- half-life [4]: 6.84 h
- Cough inhibition rate Vs Baseline (%) ([5]; 30 mg/kg): 50.6%
- Cough inhibition rate Vs Vehicle (%) ([5]; 30 mg/kg): 43.9%
- Number of coughs and cough latency (in words) ([5]; 30 mg/kg): can effectively reduce the number of coughs and prolong the cough latency
- Mean cough latency ([5]; after administration, 30 mg/kg): 118.89
- Mean number of coughs ([5]; after administration, 30 mg/kg): 9.67
- Mean cough latency [5, 15]: 87.56
- Mean number of coughs [5, 15]: 19.56
- Folds of selectivity [6]: >85714
- half-life [7]: 13.7 h

Compound: COc1cc(C(C)C)c(Oc2cnc(N)nc2N)cc1S(N)(=O)=O [AF-219, reference compound]
- Cough inhibition ratio vs. vehicle (%) [8, 14]: 45.20%
- Number of coughs during 10 min [8, 14]: 11.42
- Dysgeusia (in words) [9]: serious dysgeusia
- Efficacy for refractory cough (in words) [9]: relatively good efficacy for refractory cough

Compound: COC(=O)N1CCO[C@@H](Cc2c(-c3c(F)cc(N)cc3F)nc3cc(Cl)ccn23)C1 [Compound 161, methyl (S)-2-((2-(4-amino-2,6-difluorophenyl)-7-chloroimidazo[1,2-a]pyridin-3-yl)methyl)morpholine-4-carboxylate]
- CC50 at 48 h [1]: > 100 µM
- Ratio of quinine/water intake (in words) (Male SD rats; [10]): almost unaffected
- Quinine/tap water* 100% (Male SD rats; [11]): 5.03%
- IC50 [3]: 0.01 to 0.05 µM
- Number of coughs and cough latency (in words) ([5]; 30 mg/kg): can effectively reduce the number of coughs and prolong the cough latency
- inhibition in vivo at 30 mg/kg [5, 12]: 66.2%
- inhibition in vivo at 30 mg/kg [5, 13]: 63.5%
- Folds of selectivity [6]: A (key: A: folds of selectivity >1000; B: 200< folds of selectivity ≤1000; C: folds of selectivity ≤200)
- IC50 [6]: > 60 µM

Compound: COc1ccc2c(c1)[C@]13CCCC[C@@H]1[C@H](C2)N(C)CC3 [Dextromethorphan, dextromethorphan, reference compound]
- Cough inhibition ratio vs. vehicle (%) [8, 16]: 61.60%
- Number of coughs during 10 min [8, 16]: 8.00
- Number of coughs / cough inhibition (in words) [8]: can significantly reduce the number of coughs

Reference: US20240034729A9, “HETEROCYCLIC COMPOUND, INTERMEDIATE, PREPARATION METHOD THEREFOR AND APPLICATION THEREOF” (WUHAN LL SCIENCE AND TECHNOLOGY DEVELOPMENT CO., LTD., priority 2018, published 2024)
